Laboratory results taken from PubChem BioAssay (NCI).
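These data come from cells grown in 96-well plates and exposed to compound for 48 hours at five concentrations. TGI marks complete inhibition of growth.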

Experiments:
Experiment in all cases: NCI-60 cell line screen, 48 h
786-0 renal = tested on: 786-0 renal
A549 NSCLC = tested on: A549 NSCLC
ACHN renal = tested on: ACHN renal
BT-549 breast = tested on: BT-549 breast
CAKI-1 renal = tested on: CAKI-1 renal
CCRF-CEM leukemia = tested on: CCRF-CEM leukemia
COLO 205 colon = tested on: COLO 205 colon
DU-145 prostate = tested on: DU-145 prostate
EKVX NSCLC = tested on: EKVX NSCLC
HCC-2998 colon = tested on: HCC-2998 colon
HCT-116 colon = tested on: HCT-116 colon
HCT-15 colon = tested on: HCT-15 colon
HL-60(TB) leukemia = tested on: HL-60(TB) leukemia
HOP-62 NSCLC = tested on: HOP-62 NSCLC
HOP-92 NSCLC = tested on: HOP-92 NSCLC
HS 578T breast = tested on: HS 578T breast
HT29 colon = tested on: HT29 colon
IGROV1 ovarian = tested on: IGROV1 ovarian
K-562 leukemia = tested on: K-562 leukemia
LOX IMVI melanoma = tested on: LOX IMVI melanoma
M14 melanoma = tested on: M14 melanoma
MALME-3M melanoma = tested on: MALME-3M melanoma
MCF7 breast = tested on: MCF7 breast
MDA-MB-231 breast = tested on: MDA-MB-231 breast
MDA-MB-435 = tested on: MDA-MB-435
MDA-N = tested on: MDA-N
MOLT-4 leukemia = tested on: MOLT-4 leukemia
NCI-H226 lung = tested on: NCI-H226 lung
NCI-H23 lung = tested on: NCI-H23 lung
NCI-H460 lung = tested on: NCI-H460 lung
NCI/ADR-RES ovarian = tested on: NCI/ADR-RES ovarian
OVCAR-3 ovarian = tested on: OVCAR-3 ovarian
OVCAR-4 ovarian = tested on: OVCAR-4 ovarian
OVCAR-5 ovarian = tested on: OVCAR-5 ovarian
OVCAR-8 ovarian = tested on: OVCAR-8 ovarian
PC-3 prostate = tested on: PC-3 prostate
RPMI-8226 leukemia = tested on: RPMI-8226 leukemia
RXF 393 renal = tested on: RXF 393 renal
SF-268 CNS = tested on: SF-268 CNS
SF-295 CNS = tested on: SF-295 CNS
SF-539 CNS = tested on: SF-539 CNS
SK-MEL-2 melanoma = tested on: SK-MEL-2 melanoma
SK-MEL-28 melanoma = tested on: SK-MEL-28 melanoma
SK-MEL-5 melanoma = tested on: SK-MEL-5 melanoma
SN12C renal = tested on: SN12C renal
SNB-19 CNS = tested on: SNB-19 CNS
SNB-75 CNS = tested on: SNB-75 CNS
SR leukemia = tested on: SR leukemia
SW-620 colon = tested on: SW-620 colon
T-47D breast = tested on: T-47D breast
TK-10 renal = tested on: TK-10 renal
UACC-257 melanoma = tested on: UACC-257 melanoma
A498 renal = tested on: A498 renal
KM12 colon = tested on: KM12 colon
NCI-H522 lung = tested on: NCI-H522 lung
SK-OV-3 ovarian = tested on: SK-OV-3 ovarian
U251 CNS = tested on: U251 CNS
UACC-62 melanoma = tested on: UACC-62 melanoma
UO-31 renal = tested on: UO-31 renal

For `CC(=O)N1C(Nc2nccs2)CCN1c1ccccc1` (centres undefined), the TGI (786-0 renal) was over 10 µM, the TGI (A549 NSCLC) was over 10 µM and the TGI (ACHN renal) was over 10 µM. The TGI (BT-549 breast) was over 10 µM, the TGI (CAKI-1 renal) was over 10 µM and the TGI (CCRF-CEM leukemia) was over 10 µM. The TGI (COLO 205 colon) was over 10 µM, the TGI (DU-145 prostate) was over 10 µM and the TGI (EKVX NSCLC) was over 10 µM. The TGI (HCC-2998 colon) was over 10 µM, the TGI (HCT-116 colon) was over 10 µM and the TGI (HCT-15 colon) was over 10 µM. The TGI (HL-60(TB) leukemia) was over 10 µM, the TGI (HOP-62 NSCLC) was over 10 µM and the TGI (HOP-92 NSCLC) was over 10 µM. The TGI (HS 578T breast) was over 10 µM, the TGI (HT29 colon) was over 10 µM and the TGI (IGROV1 ovarian) was over 10 µM. For the same molecule, the TGI (K-562 leukemia) was over 10 µM, the TGI (LOX IMVI melanoma) was over 10 µM and the TGI (M14 melanoma) was over 10 µM. It also gave a TGI (MALME-3M melanoma) of over 10 µM, a TGI (MCF7 breast) of over 10 µM and a TGI (MDA-MB-231 breast) of over 10 µM. The TGI (MDA-MB-435) was over 10 µM, the TGI (MDA-N) was over 10 µM and the TGI (MOLT-4 leukemia) was over 10 µM. It also gave a TGI (NCI-H226 lung) of over 10 µM, a TGI (NCI-H23 lung) of over 10 µM and a TGI (NCI-H460 lung) of over 10 µM. For the same molecule, the TGI (NCI/ADR-RES ovarian) was over 10 µM, the TGI (OVCAR-3 ovarian) was over 10 µM and the TGI (OVCAR-4 ovarian) was over 10 µM. For the same molecule, the TGI (OVCAR-5 ovarian) was over 10 µM, the TGI (OVCAR-8 ovarian) was over 10 µM and the TGI (PC-3 prostate) was over 10 µM. It also gave a TGI (RPMI-8226 leukemia) of over 10 µM, a TGI (RXF 393 renal) of over 10 µM and a TGI (SF-268 CNS) of over 10 µM. The TGI (SF-295 CNS) was over 10 µM, the TGI (SF-539 CNS) was over 10 µM and the TGI (SK-MEL-2 melanoma) was over 10 µM. For the same molecule, the TGI (SK-MEL-28 melanoma) was over 10 µM, the TGI (SK-MEL-5 melanoma) was over 10 µM and the TGI (SN12C renal) was over 10 µM. It also gave a TGI (SNB-19 CNS) of over 10 µM, a TGI (SNB-75 CNS) of over 10 µM and a TGI (SR leukemia) of over 10 µM. The TGI (SW-620 colon) was over 10 µM, the TGI (T-47D breast) was over 10 µM and the TGI (TK-10 renal) was over 10 µM. The TGI (UACC-257 melanoma) was over 10 µM.
For `Oc1ccccc1C=Nc1ccc(-c2nc3ccccc3s2)cc1`, the TGI (786-0 renal) was over 100 µM, the TGI (A498 renal) was 52.4 µM and the TGI (A549 NSCLC) was over 100 µM. For the same molecule, the TGI (ACHN renal) was 73 µM, the TGI (BT-549 breast) was over 100 µM and the TGI (CAKI-1 renal) was over 100 µM. The TGI (CCRF-CEM leukemia) was over 100 µM, the TGI (COLO 205 colon) was 40.9 µM and the TGI (DU-145 prostate) was over 100 µM. The TGI (EKVX NSCLC) was 85.2 µM, the TGI (HCC-2998 colon) was 45.4 µM and the TGI (HCT-116 colon) was over 100 µM. The TGI (HCT-15 colon) was over 100 µM, the TGI (HL-60(TB) leukemia) was 91.2 µM and the TGI (HOP-62 NSCLC) was 52.2 µM. The TGI (HOP-92 NSCLC) was 56.4 µM, the TGI (HS 578T breast) was over 100 µM and the TGI (HT29 colon) was over 100 µM. For the same molecule, the TGI (IGROV1 ovarian) was over 100 µM, the TGI (K-562 leukemia) was over 100 µM and the TGI (KM12 colon) was over 100 µM. The TGI (LOX IMVI melanoma) was over 100 µM, the TGI (M14 melanoma) was over 100 µM and the TGI (MALME-3M melanoma) was over 100 µM. For the same molecule, the TGI (MDA-MB-435) was over 100 µM, the TGI (MDA-N) was over 100 µM and the TGI (MOLT-4 leukemia) was over 100 µM. For the same molecule, the TGI (NCI-H226 lung) was 99.1 µM, the TGI (NCI-H23 lung) was over 100 µM and the TGI (NCI-H460 lung) was 83.5 µM. The TGI (NCI-H522 lung) was 54.7 µM, the TGI (NCI/ADR-RES ovarian) was over 100 µM and the TGI (OVCAR-3 ovarian) was 88 µM. The TGI (OVCAR-4 ovarian) was over 100 µM, the TGI (OVCAR-5 ovarian) was over 100 µM and the TGI (OVCAR-8 ovarian) was over 100 µM. For the same molecule, the TGI (PC-3 prostate) was 56.8 µM, the TGI (RPMI-8226 leukemia) was over 100 µM and the TGI (RXF 393 renal) was over 100 µM. For the same molecule, the TGI (SF-268 CNS) was over 100 µM, the TGI (SF-295 CNS) was 55.9 µM and the TGI (SF-539 CNS) was over 100 µM. The TGI (SK-MEL-2 melanoma) was 50.5 µM, the TGI (SK-MEL-28 melanoma) was over 100 µM and the TGI (SK-MEL-5 melanoma) was 31.9 µM. It also gave a TGI (SK-OV-3 ovarian) of over 100 µM, a TGI (SN12C renal) of over 100 µM and a TGI (SNB-19 CNS) of over 100 µM. The TGI (SNB-75 CNS) was 99.3 µM, the TGI (SR leukemia) was over 100 µM and the TGI (SW-620 colon) was over 100 µM. It also gave a TGI (T-47D breast) of 84.8 µM, a TGI (TK-10 renal) of 71.4 µM and a TGI (U251 CNS) of over 100 µM. The TGI (UACC-257 melanoma) was 67.5 µM, the TGI (UACC-62 melanoma) was 66.3 µM and the TGI (UO-31 renal) was over 100 µM.
